In patent US20070073056A1, “4-Substituted Pyrazoline Compounds, their Preparation and Use as Medicaments” (LABORATORIOS DEL DR. ESTEVE, S.A., priority 2005, published 2007):

Biological target: CB1-receptor (UniProt P20272)
Test: binding of the pyrazoline compounds to CB1-receptors (Pharmacological Methods, Part I)
Set-up: other: 10^−7 M; other: 10^−8 M; species or system human or rat
Method: I. In-vitro Determination of Affinity to CB1/CB2-Receptors
The in-vitro determination of the affinity of the inventive 4-substituted pyrazoline compounds to CB1/CB2-Rezeptors is carried out as described in the publication of Ruth A. Ross, Heather C. Brockie et al., “Agonist-inverse agonist characterisation at CB1 and CB2 cannabinoid receptors of L-759633, L759656 and AM630”, British Journal of Pharmacology, 126, 665-672, (1999), whereby the transfected human CB1 and CB2 receptors of Receptor Biology, Inc. are used. The radioligand used for both receptors is [^3H]-CP55940. The respective parts of the description is hereby incorporated by reference and forms part of the present disclosure.
Rat Cerebellum CB1 Binding
Binding affinity to CB1 receptor was evaluated according to a modification of the method described by Govaerts et al., Eur J Pharmac Sci 23, 233-243 (2004). The respective parts of the description is hereby incorporated by reference and forms part of the present disclosure.
Briefly, cerebellum from male wistar rats (250-300 g) were carefully dissected on ice and homogenates were prepared with Potter-Helveheim in a cold 50 mM Tris-HCl solution containing 5 mM MgCl2, 1 mM EDTA and 0.25 M sucrose, pH 7.4. The suspension was centrifuged at […] for 5 minutes. The supernatants were collected and centrifuged 50,000×g for 15 minutes. The resulting pellets were then resuspended in Tris-HCl buffer without sucrose, homogenized and incubated for 15 min at 37° C. in an orbital shaker bath and centrifuged again at 50,000×g for 15 min. Pellets were weighted, resuspended in Tris-HCl buffer without sucrose, homogenized with Ultraturrax at 13,500 rpm for 3×5 seconds and alicuoted in 0.9 ml volumes in Eppendorf tubes. Alicuotes were centrifuged at 20,800×g for 5 minutes, supernatants discarded and pellets were frozen at −80° C. until use. Total protein concentration was determined using the Bio-Rad Lowry method based kit. Competitive binding experiments were performed in presence of 1 nM [^3H]-CP 55,940 in siliconized glass tubes containing 100 μg protein/tube resuspended in 1 ml final volume of 50 mM Tris-HCl, 5 mM MgCl2, 1 mM EDTA, 0.5% (w/v) bovine serum albumin, pH 7.4. Compounds were present at various concentrations and the non specific binding was determined in the presence of 10 μM HU-210. After 1 hour incubation at 30° C., the suspension was rapidly filtered through 0.5% PEI pre-treated GF/B fiber filters on a 96-well harvester and washed 3 times with 3 ml ice-cold binding buffer without bovine serum albumin. Radioactivity on filters was measured with Wallac Winspectral 1414 counter by liquid scintillation in 6 ml Ecoscint H (National Diagnostics, U.K.). Assays were made in triplicates.
Binding data were analyzed by non-linear regression with the software GraphPad Prism Version 3.03.
The binding of the pyrazoline compounds of general formula I to CB1-receptors was determined according to the method described in the section Pharmacological Methods, Part I.

Structure (SMILES)	Inhibition (10^−7 M) [%]	Inhibition (10^−8 M, in %)
COC[C@H]1CCCN1NC(=O)C1=NN(c2ccc(Cl)cc2Cl)[C@H](c2ccc(Cl)cc2)[C@@H]1C.Cl (mixture of isomers) [Example 106, cis-5-(4-chlorophenyl)-1-(2,4-dichlorophenyl)-N-((R)-2-(methoxymethyl)pyrrolidin-1-yl)-4-methyl-4,5-dihydro-1H-pyrazole-3-carboxamide hydrochloride]	39	20.4
COC[C@@H]1CCCN1NC(=O)C1=NN(c2ccc(Cl)cc2Cl)[C@H](c2ccc(Cl)cc2)[C@@H]1C.Cl (mixture of isomers) [Example 107, cis-5-(4-chlorophenyl)-1-(2,4-dichlorophenyl)-N-((S)-2-(methoxymethyl)pyrrolidin-1-yl)-4-methyl-4,5-dihydro-1H-pyrazole-3-carboxamide hydrochloride]	43.9	2.7
C[C@@H]1C(C(=O)N[C@H]2CCCC[C@@H]2O)=NN(c2ccc(Cl)cc2Cl)[C@@H]1c1ccc(Cl)cc1 (mixture of isomers) [Example 128, (+)-cis-5-(4-chlorophenyl)-1-(2,4-dichlorophenyl)-N-((1S,2S)-2-hydroxycyclohexyl)-4-methyl-4,5-dihydro-1H-pyrazole-3-carboxamide]	35.3	18.0
COc1ccc([C@@H]2[C@H](C)C(C(=O)N[C@H]3CCCC[C@@H]3O)=NN2c2ccc(Cl)cc2Cl)cc1 (mixture of isomers) [Example 281, (+)-cis-1-(2,4-dichlorophenyl)-N-((1S,2S)-2-hydroxycyclohexyl)-5-(4-methoxyphenyl)-4-methyl-4,5-dihydro-1H-pyrazole-3-carboxamide]	39.0	10.2
C[C@@H]1C(C(=O)N[C@H]2C[C@H]3CC[C@]2(C)C3(C)C)=NN(c2ccc(Cl)cc2Cl)[C@@H]1c1ccc(Cl)cc1 (mixture of isomers) [Example 422, cis-5-(4-chlorophenyl)-1-(2,4-dichlorophenyl)-4-methyl-N-((1R,2S,4R)-1,7,7-trimethylbicyclo[2.2.1]heptan-2-yl)-4,5-dihydro-1H-pyrazole-3-carboxamide]	−2	−8.4

Next, values leading:

Inhibition (10^−7 M) [%]	Inhibition (10^−8 M, in %)	Structure (SMILES)
44.3	9.6	COc1ccc([C@@H]2[C@H](C)C(C(=O)N[C@H]3CCCC[C@@H]3O)=NN2c2ccc(Cl)cc2Cl)cc1 (mixture of isomers) [Example 282, (−)-cis-1-(2,4-dichlorophenyl)-N-((1S,2S)-2-hydroxycyclohexyl)-5-(4-methoxyphenyl)-4-methyl-4,5-dihydro-1H-pyrazole-3-carboxamide]
−5.8	−37	C[C@@H]1C(C(=O)N[C@H]2CCCC[C@@H]2OCc2ccccc2)=NN(c2ccc(Cl)cc2Cl)[C@@H]1c1ccc(Cl)cc1 (mixture of isomers) [Example 409, (+)-cis-N-((1S,2S)-2-(benzyloxy)cyclohexyl)-5-(4-chlorophenyl)-1-(2,4-dichlorophenyl)-4-methyl-4,5-dihydro-1H-pyrazole-3-carboxamide]
40.9	14.7	C[C@@H]1C(C(=O)N[C@@H]2CCCC[C@H]2OCc2ccccc2)=NN(c2ccc(Cl)cc2Cl)[C@@H]1c1ccc(Cl)cc1 (mixture of isomers) [Example 437, (−)-cis-N-((1R,2R)-2-(benzyloxy)cyclohexyl)-5-(4-chlorophenyl)-1-(2,4-dichlorophenyl)-4-methyl-4,5-dihydro-1H-pyrazole-3-carboxamide]
23	11	CC[C@H]1C(C(=O)O)=NN(c2ccc(Cl)cc2Cl)[C@H]1c1ccc(Cl)cc1 (racemic) [Example 21, cis-5-(4-Chloro-phenyl)-1-(2,4-dichloro-phenyl)-4-ethyl-4,5-dihydro-1H-pyrazole-3-carboxylic acid]
